Results taken from patent publication US6787552B2, “PPAR delta activators” (Nippon Chemiphar Co., Ltd., priority 2000, dated 2004).
Where “and” joins values, the source holds several entries; their conditions need not be identical. Identical values can stand only once.

What was measured:
Assay type in all cases: cell-based
PPARδ = target: T1, PPARδ (Homo sapiens, UniProt Q03181); assay: PPARδ transactivation activity (GAL4-hPPARδ LBD / UASx4-TK-LUC reporter in CV-1 cells); settings: for PPARδ transactivation activity: a relative value (control = 100%): compound at 10^−5 M, Table 25; for PPARδ transactivation activity: a relative value (control = 100%) / activity to PPARδ relative to activity to PPARα and γ (selectivity): CV-1 cells; for Emax: CV-1, 40 h, in the manner as described in Example 9, Table 26, read-out: PPARδ (PPAR activating power); for activity to PPARδ relative to activity to PPARα and γ (selectivity): GAL4-hPPAR LBD reporter, relative activities vs control reagents
T1 construct: A chimeric receptor expression plasmid (GAL4-hPPARδ LBD); expressed in transfected cells; host or cells: CV-1 cells
T1 sequence (Q03181 211-439 limits assumed): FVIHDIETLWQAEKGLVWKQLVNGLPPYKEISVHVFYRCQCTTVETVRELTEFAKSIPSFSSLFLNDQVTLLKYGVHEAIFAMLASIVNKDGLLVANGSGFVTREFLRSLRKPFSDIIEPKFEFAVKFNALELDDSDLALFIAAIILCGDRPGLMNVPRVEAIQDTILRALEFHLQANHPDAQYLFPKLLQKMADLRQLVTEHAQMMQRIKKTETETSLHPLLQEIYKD
Protocol: A chimeric receptor expression plasmid (GAL4-hPPARδ LBD), a reporter plasmid (UASx4-TK-LUC) and β-galactosidase (β-GAL) are transfected into CV-1 cells by utilizing a lipofection reagent DMRIE-C (Life Technologies).
(§1) (1) Measurement of PPARα,γ,δ Transactivation Activity
CV-1 was obtained from Tohoku University Aging Medical Laboratory, Medical Cell Collection Center.
(§2) CV-1 cells were seeded in 24 well culture plates at 2×10^5 cells per well, and cultured for 24 hours using 4%-fetal bovine serum(FBS)-added OPTI-MEM I Reduced Serum Medium (Life Technologies, 500 μL/well). Subsequently, the cells were washed with non serum-added OPTI-MEM. To the washed cells were added DNA-containing solution [the following components were contained in the one well solution (250 μl): 0.03 μg of GAL4-hPPARδ LBD, 0.25 μg of UASx4-TK-LUC, 0.35 μg of βGAL, and 2 μL of lipofection reagent, DMRIE-C (Life Technologies). These components were dissolved in OPTI-MEM and allowed to stand for 30 minutes at room temperature]. The cells were incubated for 5 hours at 37° C.
(§3) The cells were then incubated for 40 hours in 500 μL of fresh OPTI-MEM containing 4% FBS and the test compound (dissolved in 100% DMSO to reach a final concentration: 10^−4M or 10^−5M).
(§4) The culture medium was removed and the cells were washed with PBS twice. Cell lysates were produced using a solubilizing buffer (25 mM Tris-PO4 (pH 7.8), 15%v/v glycerol, 2% CHAPS, 1% Lecithin, 1% BSA, 4 mM EGTA (pH 8.0), 8 mM MgCl2, 1 mM DTT). A portion (20 μL) of the solution was transferred onto a 96-well plate. Subsequently, 100 μL of luciferase substrate solution (Piccagene: available from Nippon Gene Co., Ltd.) was added, and a luminous intensity per one sec. (luciferase activity) was measured by means of MLR-100 type Microluminoreader (available from Corona Electrics Co., Ltd.). Further, the activity caused by […] incorporation which was incorporated into the cells simultaneously with the incorporation of the luciferase gene was measured, for correcting variation of luciferase activity by the addition of the compound, utilizing the transfection efficiency of the incorporated gene. β-Galactosidase activity was measured by the following method: 50 μL of the solubilized sample was placed on another 96-well plate; 10 μL of ONPG (2-nitrophenyl-β-galactopyranoside) solution was added; incubation was carried out for 5 minutes at room temperature; 50 μL of a reaction stopping solution (1M sodium carbonate solution) was added; and the absorbance at 414 nm was measured.

PPARα = target: T2, PPARα (Homo sapiens, UniProt Q07869); assay: PPARα transactivation activity (GAL4-hPPARα LBD / UASx4-TK-LUC reporter in CV-1 cells); settings: for PPARα transactivation activity: a relative value (control = 100%): CV-1 cells, Table 25; for Emax: CV-1, in the manner as described in Example 9, Table 26, read-out: PPARα (PPAR activating power)
T2 construct: Receptor expression plasmid (GAL4-hPPARα, LBD GAL4-hPPARγ LBD, GAL4-hPPARδ LBD); expressed in transfected cells; host or cells: CV-1 cells
T2 sequence (Q07869 239-466 limits assumed): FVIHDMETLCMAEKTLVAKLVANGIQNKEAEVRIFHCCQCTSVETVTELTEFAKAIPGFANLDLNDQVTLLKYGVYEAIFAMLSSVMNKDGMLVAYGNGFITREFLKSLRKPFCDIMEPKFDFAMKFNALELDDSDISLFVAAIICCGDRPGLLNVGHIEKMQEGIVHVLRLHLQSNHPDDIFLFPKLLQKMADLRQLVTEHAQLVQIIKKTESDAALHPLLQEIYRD
Protocol: as §1
(§5) PPARα,γ,δ transactivation activity of each compound [Examples 1-6 and known PPARδ agonist (L-16504: Berger, J., et al. (1999), J. Biol. Chem., 274:6718-6725)] was measured in the manner described below.
(§6) CV-1 was obtained from Tohoku University Aging Medical Laboratory, Medical Cell Collection Center. All test compounds were dissolved in dimethylsulfoxide (DMSO) to give a test sample of 0.1% concentration.
(§7) Receptor expression plasmid (GAL4-hPPARα, LBD GAL4-hPPARγ LBD, GAL4-hPPARδ LBD), Reporter plasmid (UASx4-TK-LUC), and β-galactosidase expression plasmid (βGAL) similar to Kliewer, S. A., et al., ((1992) Nature, 358:771-774) were employed.
as §2, §3, §4

PPARγ = target: T3, PPARγ (Homo sapiens, UniProt P37231); assay: PPARγ transactivation activity (GAL4-hPPARγ LBD / UASx4-TK-LUC reporter in CV-1 cells); settings: for PPARγ transactivation activity: a relative value (control = 100%): compound at 10^−5 M, CV-1 cells, Table 25; for Emax: CV-1, in the manner as described in Example 9, Table 26, read-out: PPARγ (PPAR activating power)
T3 construct: Receptor expression plasmid (GAL4-hPPARα, LBD GAL4-hPPARγ LBD, GAL4-hPPARδ LBD); expressed in transfected cells; host or cells: CV-1 cells
T3 sequence (P37231 238-503 limits assumed): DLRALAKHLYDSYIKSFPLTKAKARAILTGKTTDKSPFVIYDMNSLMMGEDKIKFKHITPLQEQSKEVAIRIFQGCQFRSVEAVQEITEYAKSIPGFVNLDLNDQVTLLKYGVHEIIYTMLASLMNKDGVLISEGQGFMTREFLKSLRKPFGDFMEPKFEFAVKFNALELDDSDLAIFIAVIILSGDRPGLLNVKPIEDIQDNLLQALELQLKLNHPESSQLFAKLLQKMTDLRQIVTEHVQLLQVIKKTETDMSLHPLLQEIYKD
Protocol: In the same manner, relative ligand activities to PPARδ and γ transactivation activitis are calculated (see the below-mentioned Example 9).
as §1, §5, §6, §7, §2, §3, §4

| SMILES | PPARδ transactivation activity: a relative value (control = 100%) (PPARδ) | PPARα transactivation activity: a relative value (control = 100%) (PPARα; compound at 10^−5 M) | PPARγ transactivation activity: a relative value (control = 100%) (PPARγ) | Emax (PPARδ) | Emax (PPARα) | Emax (PPARγ) | activity to PPARδ relative to activity to PPARα and γ (selectivity) (PPARδ) | PPARα transactivation activity: a relative value at 10^−5 M (control = 100%) (PPARα; compound at 10^−5 M, control WY-14643 (10^−4M), Table 27) |
| --- | --- | --- | --- | --- | --- | --- | --- | --- |
| CC(C)c1oc(-c2ccccc2Cl)nc1CCCc1ccc(OC(C)(C)C(=O)O)cc1 [Example 6, 2-[4-[3-[2-(2-Chlorophenyl)-5-isopropyl-4-oxazolyl]propyl]phenyloxy]-2-methylpropionic acid] | 109 ± 10% | 98 ± 6% | 93 ± 1% | – | – | – | – | – |
| CC(C)c1oc(-c2ccc(Br)cc2Cl)nc1CCC(=O)c1ccc(OC(C)(C)C(=O)O)cc1 [Example 7-13, 2-[4-[3-[2-(4-Bromo-2-chlorophenyl)-5-isopropyl-4-oxazolyl]propionyl]phenyloxy]-2-methylpropionic acid] | – | – | – | 81% | 1% | 3% | – | – |
| CC(C)c1oc(-c2cccc(Cl)c2O)nc1CCC(=O)c1ccc(OC(C)(C)C(=O)O)cc1 [Example 7-12, 2-[4-[3-[2-(3-Chloro-2-hydroxyphenyl)-5-isopropyl-4-oxazolyl]propionyl]phenyloxy]-2-methylpropionic acid] | – | – | – | 79 ± 2% | 8 ± 1% | 4% | selectively higher | – |
| CCCc1c(OCCCOc2ccc(OCC(=O)O)cc2)ccc(C(C)=O)c1O [Example L-165041, reference compound] | – | – | – | – | 2 ± 1% | 1 ± 0.03% | – | – |

The remaining lines, values ahead:

| PPARδ transactivation activity: a relative value (control = 100%) (PPARδ) | PPARα transactivation activity: a relative value (control = 100%) (PPARα; compound at 10^−5 M) | PPARγ transactivation activity: a relative value (control = 100%) (PPARγ) | Emax (PPARδ) | Emax (PPARα) | Emax (PPARγ) | activity to PPARδ relative to activity to PPARα and γ (selectivity) (PPARδ) | PPARα transactivation activity: a relative value at 10^−5 M (control = 100%) (PPARα; compound at 10^−5 M, control WY-14643 (10^−4M), Table 27) | SMILES |
| --- | --- | --- | --- | --- | --- | --- | --- | --- |
| 23% | 35% | 26% | – | – | – | – | – | CC(C)c1oc(-c2ccccc2Cl)nc1CCC(O)c1ccc(OC(C)(C)C(=O)O)cc1 (centres unmarked) [Example 4, 2-[4-[3-[2-(2-Chlorophenyl)-5-isopropyl-4-oxazolyl]-1-hydroxypropyl]phenyloxy]-2-methylpropionic acid] |
| – | – | – | 58% | 1% | 26% | – | – | CC(C)c1oc(-c2ccc(-c3ccccc3)cc2)nc1CCC(=O)c1ccc(OC(C)(C)C(=O)O)cc1 [Example 7-8, 2-[4-[3-[2-(4-Biphenylyl)-5-isopropyl-4-oxazolyl]-propionyl]phenyloxy]-2-methylpropionic acid] |
| – | – | – | 53% | 2% | 18% | – | – | CC(C)c1oc(-c2ccc(-c3ccccc3)cc2Cl)nc1CCC(=O)c1ccc(OC(C)(C)C(=O)O)cc1 [Example 7-14, 2-[4-[3-[2-(3-Chloro-4-biphenylyl)-5-isopropyl-4-oxazolyl]propionyl]phenyloxy]-2-methylpropionic acid] |
| 114 ± 1% | 52 ± 7% | 36 ± 3% | – | – | – | selectively higher | – | CC(C)c1oc(-c2ccccc2Cl)nc1CC=Cc1ccc(OC(C)(C)C(=O)O)cc1 [Example 5, 2-[4-[3-[2-(2-Chlorophenyl)-5-isopropyl-4-oxazolyl]-1-propenyl]phenyloxy]-2-methylpropionic acid] |
| – | – | – | 58 ± 14% | 1% | 2% | – | – | CCC(C)(Oc1ccc(C(=O)CCc2nc(-c3ccc(Cl)cc3Cl)oc2C(C)C)cc1)C(=O)O (centres unmarked) [Example 7-5, 2-[4-[3-[2-(2,4-Dichlorophenyl)-5-isopropyl-4-oxazolyl]propionyl]phenyloxy]-2-methylbutyric acid] |
| – | – | – | 80 ± 5% | 8% | 5 ± 1% | – | – | CC(C)c1oc(-c2ccc3ccccc3c2O)nc1CCC(=O)c1ccc(OC(C)(C)C(=O)O)cc1 [Example 7-9, 2-[4-[3-[2-(1-Hydroxy-2-naphthyl)-5-isopropyl-4-oxazolyl]propionyl]phenyloxy]-2-methylpropionic acid] |
| – | – | – | – | – | – | – | 129% and 126% and 120% and 166% | Cc1nc(-c2ccc(C(F)(F)F)cc2)sc1CCC(=O)c1ccc(OC(C)(C)C(=O)O)cc1 [Example 8-1, 2-[4-[3-[2-[(4-Trifluoromethyl)phenyl]-4-methyl-5-thiazolyl]propionyl]phenyloxy]-2-methylpropionic acid] |
